In the supplement of paper PMC11061612:

Key:
[1] = tested on: MFE-319 (Endometrial Carcinoma); test: combination Emax (second highest fraction inhibited in the dose matrix, 72 h); higher = more inhibition; extreme values may be limits of the assay
Procedure, shortened: (§1)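 Bliss excess equals the observed combination effect minus the expected value EA + EB − EA·EB, where EA and EB are the effects of each agent alone. Combination Emax is the second-highest inhibition within the matrix. Inhibition was scaled from CellTiter-Glo 2.0 luminescence, with 0 set by vehicle wells and 1 by blank wells, after 72 hours of two-drug dosing of cells plated in 1536-well plates.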

[2] = tested on: NB7 (Neuroblastoma); test: as above
Procedure, shortened: as §1

[3] = tested on: RPMI-7951 (Melanoma); test: as above
Procedure, shortened: as §1

[4] = tested on: EW-13 (Ewing's Sarcoma); test: as above
Procedure, shortened: as §1

[5] = tested on: SCC-9 (Oral Cavity Carcinoma); test: as above
Procedure, shortened: as §1

[6] = tested on: JHH-7 (Hepatocellular Carcinoma); test: as above
Procedure, shortened: as §1

[7] = tested on: GI-1 (Glioblastoma); test: as above
Procedure, shortened: as §1

[8] = tested on: KYSE-150 (Esophageal Squamous Cell Carcinoma); test: as above
Procedure, shortened: as §1

[9] = tested on: SNU-C1 (Colorectal Carcinoma); test: as above
Procedure, shortened: as §1

[10] = tested on: NCI-H2405 (Lung Adenocarcinoma); test: as above
Procedure, shortened: as §1

[11] = tested on: BT-20 (Breast Carcinoma); test: as above
Procedure, shortened: as §1

[12] = tested on: EMC-BAC-2 (Non-Small Cell Lung Carcinoma); test: as above
Procedure, shortened: as §1

[13] = tested on: H-EMC-SS (Chondrosarcoma); test: as above
Procedure, shortened: as §1

[14] = tested on: ASH-3 (Thyroid Gland Carcinoma); test: as above
Procedure, shortened: as §1

[15] = tested on: NCI-H1573 (Lung Adenocarcinoma); test: as above
Procedure, shortened: as §1

[16] = tested on: KP-2 (Pancreatic Carcinoma); test: as above
Procedure, shortened: as §1

[17] = tested on: LOU-NH91 (Squamous Cell Lung Carcinoma); test: as above
Procedure, shortened: as §1

[18] = tested on: NCI-H322M (Lung Adenocarcinoma); test: as above
Procedure, shortened: as §1

[19] = tested on: NCI-H513 (Other Solid Carcinomas); test: Bliss excess, mean over the matrix (fraction); higher = more synergy
Procedure, shortened: as §1

[20] = tested on: BT-20 (Breast Carcinoma); test: as above
Procedure, shortened: as §1

## CCc1c2c(nc3ccc(O)cc13)-c1cc3c(c(=O)n1C2)COC(=O)[C@]3(O)CC [SN-38] + O=C(c1cc(Cc2n[nH]c(=O)c3ccccc23)ccc1F)N1CCN(C(=O)C2CC2)CC1 [Olaparib] (first compound max 0.3 µM, 7x7, partner max 10 µM)
[1]
  combination Emax: 0.301
[2]
  combination Emax: 0.967
[3]
  combination Emax: 0.948
[4]
  combination Emax: 0.811
[5]
  combination Emax: 0.365
[6]
  combination Emax: 0.289
[7]
  combination Emax: 0.954
[8]
  combination Emax: 0.728
[9]
  combination Emax: 0.349
[10]
  combination Emax: 0.472
[11]
  combination Emax: 0.855
[12]
  combination Emax: 0.531
[13]
  combination Emax: 0.676
[14]
  combination Emax: 0.912
[15]
  combination Emax: 0.187
[16]
  combination Emax: 0.55
[17]
  combination Emax: 0.883
[18]
  combination Emax: 0.869
[19]
  Bliss excess: 0.0188
[20]
  Bliss excess: 0.107
